Laboratory results: PMC11091888, “Evaluation of Fusobacterium nucleatum Enoyl-ACP Reductase (FabK) as a Narrow-Spectrum Drug Target” (ACS Infectious Diseases, 2024)
Values after ≈ are worked out from the molar mass of the structure shown. Where two headings read alike, the source gives them in different places.

Tests used:
F. nucleatum 23726 [1] = assay: MIC against F. nucleatum 23726; format: cell-based, Fusobacterium nucleatum; details: three biological replicates; for MIC Fn 23726: F. nucleatum 23726 wild-type; for MIC: Fusobacterium nucleatum, 23726, F. nucleatum 23726 wild-type, read-out: MIC Fn 23726
Experimental: (§1) Compounds were twofold serially diluted (100–0.2 μg/mL) across a 96-well plate in 100 μL of media used for the specific organism (Table S4). For anaerobes, plates were incubated anaerobically at 37 °C for 1 h and then inoculated with approximately 10^5 to 10^6 CFU/well. Plates were incubated at 37 °C for up to 48 h, and MICs were read by visual inspection.

E. faecalis FA2–2ΔfabI = assay: MIC against E. faecalis FA2-2 fabK+ (ΔfabI, possesses only FabK); format: cell-based, Enterococcus faecalis; details: for MIC Ef fabK+: E. faecalis FA2-2 ΔfabI, possesses only FabK; for MIC: Enterococcus faecalis, read-out: MIC Ef fabK+, E. faecalis FA2-2 ΔfabI, possesses only FabK
Experimental: as §1

E. faecalis FA2–2ΔfabK = assay: MIC against E. faecalis FA2-2 fabI+ (ΔfabK, possesses only FabI); format: cell-based, Enterococcus faecalis; details: E. faecalis FA2-2 ΔfabK, possesses only FabI
Experimental: as §1

E. faecalis FA2–2 = assay: MIC against wild-type E. faecalis FA2-2 (FabI and FabK); format: cell-based, Enterococcus faecalis; details: E. faecalis FA2-2, possesses both FabI and FabK; for MIC: Enterococcus faecalis, read-out: MIC Ef wild-type
Experimental: as §1

[2] = tested on: F. nucleatum 23726 overexpression strains; assay: MIC against F. nucleatum 23726 transformed with empty vector, fabK or fabX under ATc-inducible promoter; format: cell-based, Fusobacterium nucleatum; details: Fusobacterium nucleatum
Experimental: The transformation of F. nucleatum 23726 was performed via electroporation as previously described,[41] except that Columbia broth was used. (i) Antisense vector: F. nucleatum gene silencing vector, pHFK2, was developed by inserting the ATc inducible paired-termini antisense sequences from the clostridial vector pMSPT into pCWU6, a F. nucleatum vector.[56] pCWU6 was amplified by PCR (CloneAmp polymerase) and recombined with the BamHI and KpnI fragments of pMSPT containing the Tet promoter and paired-termini sequences.[26] Antisense nucleotides targeting either 50 bp upstream and downstream of the fabK start codon (FabKAS1) or 25 bp upstream and 75 bp downstream (FabKAS2) were cloned into SphI and XhoI restriction sites of pHFK2. (ii) Complementation vectors: these were generated by PCR amplifying the fabK promoter and gene and introducing KpnI and HindIII restriction sites at 5′ and 3′ ends, respectively. Purified PCR amplicons were inserted into the KpnI and HindIII sites of pCWU6. (iii) Overexpression vectors: the corresponding gene, fabK or fabX, was amplified via PCR, introducing HindIII or SacI restriction sites to the 5′ end, respectively. BamHI restriction sites were introduced to the 3′ end of both. Purified PCR amplicons were inserted into the respective restriction sites of pHFK2. (iv) Allelic exchange vector: vector, pCWU8-FabK, was generated using a previously described protocol,[41],[56] whereby 1-kb regions upstream and downstream of fabK were cloned into the suicide vector pCWU8 using a Gibson Assembly Cloning Kit (New England Biolabs). The recombinant vector was transformed into strain F. nucleatum 23726ΔgalK, and successful integrants were collected that were resistant to thiamphenicol (5 μg/mL). Since the suicide vector expresses GalK, which is toxic in the presence of 2-deoxy-D-galactose (2-DG), the compound 2-DG (0.25% w/v) was added to counter-select for mutants that underwent a second homologous recombination. Ten resulting colonies were then tested for deletion of fabK via PCR, using primers in Table S7. The experiment was independently performed twice for a total of 20 colonies screened for fabK deletion. All experiments were done anaerobically at 37 °C in tryptic soy broth supplemented with 1% w/v peptone and 0.25% w/v autoclaved L-cysteine hydrochloride (TSPC) or TSPC agar with thiamphenicol or 2-DG.
as §1

F. nucleatum 23726 [3] = assay: Growth in FAS-II inhibitor with or without exogenous fatty acids; format: cell-based, Fusobacterium nucleatum; details: fatty acid mixture of Table S2
Experimental: To plates containing twofold serial dilutions of compounds, exponential phase cultures were added to a final OD600nm of 0.1. Plates containing F. nucleatum in Columbia broth were incubated at 37 °C inside of a Tecan Infinite 200 Pro, which was inside an anaerobic chamber; growth kinetics for Streptococcus spp. in brain heart infusion broth were done aerobically in the same Tecan instrument.

[4] = tested on: C. difficile infection (CDI); details: cited from earlier work
FnFabK = FnFabK (Fusobacterium nucleatum subsp. nucleatum, UniProt Q8RGV3); assay: biochemical; details: for IC50: IC50 against FnFabK
Experimental: Incubation lasted for a total of 10 min before the addition of crotonyl-CoA substrate, and the reaction was initiated by the addition of NADH for a final assay volume of 100 μL. The oxidation of NADH to NAD+ was measured by tracking fluorescence (340 nm/460 nm) with a Biotek Synergy H1 microplate reader in 15 s intervals for a total of 10 min to monitor the rate of reaction. The reaction was conducted in Greiner Bio-One 384-well μClear Bottom Polystyrene Microplates. […] Measurements were conducted in triplicate, and IC50’s were calculated via GraphPad Prism 9.1.2 using four-parameter logistic (Hill) curve analysis using equation Y = bottom + (top – bottom)/[1 + 10 (Log IC50 – X) × Hill Slope], where X is the logarithm of the dose and Y is the response. The assay concentrations of the cofactor, NADH, and substrate, crotonyl-CoA, were also determined via GraphPad Prism 9.1.2 using the substrate inhibition model to determine Km(app).

CdFabK = tested on: CdFabK; design: method as in PMID 37224699; details: previously reported, cited from earlier work
[5] = Cytotoxicity against Vero cells (resazurin viability); format: cell-based; details: monkey, Vero epithelial cells, maximum tested concentration 100 μg/mL
Experimental: This was done as described[36] using colorectal carcinoma HCT116 and Vero epithelial cells cultured at 37 °C in 5% CO2 in Dulbecco’s modified Eagle’s medium (DMEM) with 4.5 g/L glucose and L-glutamine. The medium was supplemented with 10% v/v FetalGro (Rocky Mountain Biologicals). Approximately 25,000/well were aliquoted into black 96-well plates (Greiner Bio-One) and incubated overnight, before being resuspended in DMEM supplemented with 20% Gibco KnockOut Serum Replacement (Thermo Fisher Scientific). Compounds (100–1.6 μg/mL) were then added to the cells and incubated for 24 h at 37 °C and 5% CO2. Cell viability was analyzed using resazurin as described.[36]

Sequence of FnFabK (Q8RGV3 entry or part of it): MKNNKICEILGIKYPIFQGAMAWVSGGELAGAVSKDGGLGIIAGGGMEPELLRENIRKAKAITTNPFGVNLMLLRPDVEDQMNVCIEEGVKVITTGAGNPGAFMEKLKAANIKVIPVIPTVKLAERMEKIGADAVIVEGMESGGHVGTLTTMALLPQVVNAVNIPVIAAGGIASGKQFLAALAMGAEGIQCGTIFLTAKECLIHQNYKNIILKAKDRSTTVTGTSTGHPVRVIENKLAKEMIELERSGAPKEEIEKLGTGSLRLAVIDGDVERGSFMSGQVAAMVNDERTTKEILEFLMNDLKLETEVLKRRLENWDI

SMILES	MIC Fn 23726 (F. nucleatum 23726 [1]) [µg/mL]	MIC Ef fabK+ (E. faecalis FA2–2ΔfabI) [µg/mL]	MIC Ef fabI+ (E. faecalis FA2–2ΔfabK) [µg/mL]	MIC Ef wild-type (E. faecalis FA2–2) [µg/mL]	other results
O=C(NCc1nc(-c2ccc(Br)cc2)c[nH]1)Nc1nc2cc(Cl)ccc2s1 [Compound 689]	6.3 (≈ 13.6 µM)	<0.1	25 (≈ 54 µM)	25 (≈ 54 µM)	
O=C(NCc1nc2ccccc2[nH]1)Nc1ncc(Sc2ccccn2)s1 [Compound 675]	100 (≈ 261 µM)	0.8 (≈ 2.09 µM)	100 (≈ 261 µM)	100 (≈ 261 µM)	
O=C(NCc1nc(-c2ccc(Br)cc2)c[nH]1)Nc1ncc(Sc2ccc(Br)cc2)s1 [Compound 702]	100 (≈ 177 µM)	<0.1	100 (≈ 177 µM)	100 (≈ 177 µM)	
O=C(NCc1nc(-c2ccc(Br)cc2)c[nH]1)Nc1ncc(Sc2ccc3ccccc3n2)s1 [Compound 680]	100 (≈ 186 µM)	<0.1	100 (≈ 186 µM)	100 (≈ 186 µM)	
O=C(NCc1nc(-c2ccc(Br)cc2)c[nH]1)Nc1ncc(Sc2ccc(C(F)(F)F)cn2)s1 [Compound 684]	3.1 (≈ 5.58 µM)	<0.1	100 (≈ 180 µM)	100 (≈ 180 µM)	
O=C(NCc1nc(-c2ccc(Br)cc2)c[nH]1)Nc1nc2ccc(Br)cc2s1 [Compound 671]	25 (≈ 49.3 µM)	<0.1	50 (≈ 98.6 µM)	50 (≈ 98.6 µM)	
C=C/C(C)=C/[C@@]1(C)SC(=O)C(C)=C1O [thiolactomycin, reference compound]					MIC ([2]; read-out: MIC, FabK overexpression, induced): 3.9 µg/mL; MIC ([2]; read-out: MIC, FabK overexpression, uninduced): 7.8 µg/mL; MIC ([2]; read-out: MIC, FabX overexpression, induced): 3.9 µg/mL; MIC ([2]; read-out: MIC, FabX overexpression, uninduced): 7.8 µg/mL; MIC ([2]; read-out: MIC, empty vector, induced): 7.8 µg/mL; MIC ([2]; read-out: MIC, empty vector, uninduced): 7.8 µg/mL; Effect of exogenous fatty acids on growth inhibition of F. nucleatum (F. nucleatum 23726 [3]): did not rescue
O=C(NCc1nc(-c2ccc(Br)cc2)c[nH]1)Nc1ncc(Sc2ccccn2)s1 [Compound 296, 1-[4-(4-bromophenyl)-1H-imidazole-2-yl]methyl-3-[5-(pyridin-2-ylthio)thiazol-2-yl]urea]	100 (≈ 205 µM)				MIC (F. nucleatum 23726 [1]): > 100 µg/mL; MIC (E. faecalis FA2–2ΔfabI): < 0.1 µg/mL; MIC (E. faecalis FA2–2): 100 µg/mL (≈ 205 µM); Efficacy in treating C. difficile infection (CDI) in mice [4]: efficacious
O=C(NCc1nc(-c2ccc(Br)cc2)c[nH]1)Nc1ncc(Sc2ccc(Cl)cn2)s1 [Compound 682]	3.1 (≈ 5.94 µM)	<0.1	100 (≈ 192 µM)	100 (≈ 192 µM)	
O=C(NCc1nc(-c2ccc(Br)cc2)c[nH]1)Nc1nc2c(F)cc(F)cc2s1 [Compound 674]	100 (≈ 215 µM)	<0.1	100 (≈ 215 µM)	100 (≈ 215 µM)	
O=C(NCc1nc(-c2ccc(Br)cc2)c[nH]1)Nc1nc2ccc(F)cc2s1 [Compound 670]	100 (≈ 224 µM)	<0.1	100 (≈ 224 µM)	100 (≈ 224 µM)	
O=C(NCc1nc(-c2ccc(Br)cc2)c[nH]1)Nc1ncc(Sc2ncccn2)s1 [Compound 679]	6.3 (≈ 12.9 µM)	<0.1	100 (≈ 205 µM)	100 (≈ 205 µM)	
O=C(NCc1nc(-c2ccc(Br)cc2)c[nH]1)Nc1ncc(Sc2nc3ccccc3s2)s1 [Compound 703]	100 (≈ 184 µM)	<0.1	100 (≈ 184 µM)	100 (≈ 184 µM)	
O=C(NCc1nc(-c2ccc(Br)cc2)c[nH]1)Nc1nc2ccccc2s1 [Compound 701]					MIC (F. nucleatum 23726 [1]): 1.6 µg/mL (≈ 3.74 µM); MIC (E. faecalis FA2–2ΔfabI): < 0.1 µg/mL; MIC (E. faecalis FA2–2): 100 µg/mL (≈ 233 µM); IC50 (FnFabK; equivalent concentration, conversion of the μM value): 10.7 µM; IC50 (FnFabK; purified FnFabK, three replicates): 10.6 µM; Hill coefficient (FnFabK inhibition) (FnFabK; four-parameter logistic fit): 1.06; IC50 against CdFabK, equivalent concentration (CdFabK): 0.8 µg/mL; IC50 (CdFabK; read-out: IC50 against CdFabK): 1.88 µM
O=C(NCc1nc(-c2ccccc2)n[nH]1)Nc1ncc(Sc2ccccn2)s1 [Compound 676]	100 (≈ 244 µM)	0.2 (≈ 0.488 µM)	100 (≈ 244 µM)	100 (≈ 244 µM)	
COc1cccc2c1C(=O)c1c(O)c3c(c(O)c1C2=O)C[C@@](O)(C(=O)CO)C[C@@H]3O[C@H]1C[C@H](N)[C@H](O)[C@H](C)O1 [doxorubicin, reference compound]					IC50 at 24 h [5]: 8.1 ± 1 µg/mL (≈ 14.9 µM)
O=C(NCc1nc(-c2ccc(Br)cc2)c[nH]1)Nc1ncc(Sc2ncccc2C(F)(F)F)s1 [Compound 683]	3.1 (≈ 5.58 µM)	<0.1	100 (≈ 180 µM)	100 (≈ 180 µM)	
CCOc1ccc2sc(NC(=O)NCc3nc(-c4ccc(Br)cc4)c[nH]3)nc2c1 [Compound 690]	25 (≈ 52.9 µM)	<0.1	25 (≈ 52.9 µM)	25 (≈ 52.9 µM)	
